Measured values reported in patent US20230172867A1, “A METHOD FOR TREATING CANCER WITH AN ORAL DOSAGE FORM OF AN FGFR4 INHIBITOR” (Eisai R&D Management Co., Ltd., priority 2020, published 2023).
“Also recorded” adds a separate entry of the source. Read-outs that look alike come from different tables or passages of the source.

Assay: Pharmacokinetic measurements of H3B-6527 capsules in patients (trial NCT02834780), plasma LC-MS/MS
Assay type: in vivo, human
Details: for Cmax / half-life / Tmax / AUC: human, plasma, oral; for Cmax: read-out: Cmax, geometric mean (CV%); for half-life: read-out: Half-life, geometric mean (CV%) (converted); for Tmax: read-out: Tmax, median (min-max); for AUC: read-out: AUC, geometric mean (CV%)
Description: A description of the first in human clinical trial for H3B-6527 can be found at the ClinicalTrials.gov by searching for trial identifier NCT02834780. In summary, the trial included a study population having the following characteristics: Adult patients ≥18 years old with advanced HCC or ICC; Progression after at least one prior therapy; ECOG score of 0 or 1; Well compensated liver function; FGF19-positive (dose expansion phase only); Excluded if patients have significant active infections [except hepatitis B virus (HBV) and hepatitis C virus (HCV)], gastric or esophageal varices, or previous FGF19-FGFR4 targeted therapy.
Blood samples are collected at the planned time points from each patient and centrifuged. The plasma portion of each sample is then transferred to a K2EDTA tube, which is then shipped to a bioanalytical lab for concentration measurement using LC-MS/MS. The concentration data are then analyzed using Phoenix® WinNonlin software to obtain PK parameters. The obtained PK parameters are further summarized using analytical software.
Drug Administration and Dosage for Dose Escalation: H3B-6527 was administered orally QD or BID on a 21-day cycle. […] Patients in dose escalation phase were treated regardless of FGF19 status. Response determined by RECIST 1.1/modified RECIST every 6 weeks
Further collection and collation of the PK results of the trial of Example 2 at a later point in time are reflected in the following Table 5:
The results of further analysis of the PK data of the trial of Example 2 with the actual date and time of the dose administration and PK sampling after QC, an update from the results of a preliminary analysis with the nominal (i.e. planned) dosing/PK sampling date/time presented in Example 3, are reflected in the following Table 6. In this example the number of patients from which each PK parameter was calculated is shown, rather than the total number of patients receiving a particular dose and regimen as in Table 5.

[1] = 300 mg, 300 mg QD, fasted, Day 1, Table 5, nominal times
[2] = 300 mg, 300 mg QD, fasted, Day 1, Table 6, actual times after QC
[3] = 300 mg, 300 mg QD, fasted, Day 8, Table 5, nominal times
[4] = 300 mg, 300 mg QD, fasted, Day 8, Table 6, actual times after QC
[5] = 500 mg, 500 mg BID, fasted, Day 1, Table 5, nominal times
[6] = 500 mg, 500 mg BID, fasted, Day 1, Table 6, actual times after QC
[7] = 500 mg, 500 mg BID, fasted, Day 8, Table 5, nominal times
[8] = 500 mg, 500 mg BID, fasted, Day 8, Table 6, actual times after QC
[9] = 500 mg, 500 mg BID, fed, Day 1, Table 5, nominal times
[10] = 500 mg, 500 mg BID, fed, Day 1, Table 6, actual times after QC
[11] = 500 mg, 500 mg BID, fed, Day 8, Table 5, nominal times
[12] = 500 mg, 500 mg BID, fed, Day 8, Table 6, actual times after QC
[13] = 600 mg, 600 mg QD, fasted, Day 1, Table 5, nominal times
[14] = 600 mg, 600 mg QD, fasted, Day 1, Table 6, actual times after QC
[15] = 600 mg, 600 mg QD, fasted, Day 8, Table 5, nominal times
[16] = 600 mg, 600 mg QD, fasted, Day 8, Table 6, actual times after QC
[17] = 600 mg, 600 mg QD, fed, Day 1, Table 5, nominal times
[18] = 600 mg, 600 mg QD, fed, Day 1, Table 6, actual times after QC
[19] = 600 mg, 600 mg QD, fed, Day 8, Table 5, nominal times

For `C=CC(=O)Nc1cc(N2CCN(CC)CC2)ccc1Nc1cc(N(C)C(=O)Nc2c(Cl)c(OC)cc(OC)c2Cl)ncn1` [H3B-6527, N-(2-((6-(3-(2,6-dichloro-3,5-dimethoxyphenyl)-1-methylureido)pyrimidin-4-yl)amino)-5-(4-ethylpiperazin-1-yl)phenyl)acrylamide], which AUC, geometric mean (CV%) (300 mg QD, fasted, Day 1, Table 5, nominal times) is on record?
The AUC, geometric mean (CV%) was 73 ng·h/mL.

What about the AUC, geometric mean (CV%) (300 mg QD, fasted, Day 8, Table 5, nominal times) of the same compound?
Its AUC, geometric mean (CV%) is 53 ng·h/mL.

What about the AUC, geometric mean (CV%) (500 mg BID, fasted, Day 1, Table 5, nominal times) of the same compound?
Its AUC, geometric mean (CV%) is 470 ng·h/mL.

What about the AUC, geometric mean (CV%) (500 mg BID, fasted, Day 8, Table 5, nominal times) of the same compound?
The AUC, geometric mean (CV%) was 1200 ng·h/mL.

And the AUC, geometric mean (CV%) (500 mg BID, fed, Day 1, Table 5, nominal times)?
Its AUC, geometric mean (CV%) is 769 ng·h/mL.

And the AUC, geometric mean (CV%) (500 mg BID, fed, Day 8, Table 5, nominal times)?
The AUC, geometric mean (CV%) was 1080 ng·h/mL.

And the “exposure in plasma across doses” value (500 mg to 2000 mg administered with food (FIG. 4))?
Its value is “appeared to be similar across the doses from 500 mg to 2000 mg”.

And the AUC, geometric mean (CV%) (600 mg QD, fasted, Day 1, Table 5, nominal times)?
Its AUC, geometric mean (CV%) is 175 ng·h/mL.

And the AUC, geometric mean (CV%) (600 mg QD, fasted, Day 8, Table 5, nominal times)?
The AUC, geometric mean (CV%) was 636 ng·h/mL.

And the AUC, geometric mean (CV%) (600 mg QD, fed, Day 1, Table 5, nominal times)?
The AUC, geometric mean (CV%) was 1280 ng·h/mL.

And the AUC, geometric mean (CV%) (600 mg QD, fed, Day 8, Table 5, nominal times)?
The AUC, geometric mean (CV%) was 502 ng·h/mL.

What about the AUC, geometric mean (CV%) (700 mg BID, fed, Day 1, Table 5, nominal times) of the same compound?
The AUC, geometric mean (CV%) was 590 ng·h/mL.

What about the AUC, geometric mean (CV%) (700 mg BID, fed, Day 8, Table 5, nominal times) of the same compound?
Its AUC, geometric mean (CV%) is 640 ng·h/mL.

And the AUC, geometric mean (CV%) (1000 mg QD, fasted, Day 1, Table 5, nominal times)?
Its AUC, geometric mean (CV%) is 602 ng·h/mL.

What about the AUC, geometric mean (CV%) (1000 mg QD, fasted, Day 8, Table 5, nominal times) of the same compound?
The AUC, geometric mean (CV%) was 912 ng·h/mL.

And the AUC, geometric mean (CV%) (1000 mg QD, fed, Day 1, Table 5, nominal times)?
The AUC, geometric mean (CV%) was 1100 ng·h/mL.

What about the AUC, geometric mean (CV%) (1000 mg QD, fed, Day 8, Table 5, nominal times) of the same compound?
The AUC, geometric mean (CV%) was 865 ng·h/mL.

And the AUC, geometric mean (CV%) (1400 mg QD, fasted, Day 1, Table 5, nominal times)?
The AUC, geometric mean (CV%) was 400 ng·h/mL.

And the AUC, geometric mean (CV%) (1400 mg QD, fasted, Day 8, Table 5, nominal times)?
Its AUC, geometric mean (CV%) is 1450 ng·h/mL.

What about the AUC, geometric mean (CV%) (1400 mg QD, fed, Day 1, Table 5, nominal times) of the same compound?
Its AUC, geometric mean (CV%) is 5670 ng·h/mL.

And the AUC, geometric mean (CV%) (1400 mg QD, fed, Day 8, Table 5, nominal times)?
Its AUC, geometric mean (CV%) is 5450 ng·h/mL.

What about the AUC, geometric mean (CV%) (2000 mg QD, fed, Day 1, Table 5, nominal times) of the same compound?
The AUC, geometric mean (CV%) was 3030 ng·h/mL.

And the AUC, geometric mean (CV%) (2000 mg QD, fed, Day 8, Table 5, nominal times)?
The AUC, geometric mean (CV%) was 1920 ng·h/mL.

And the “minimal plasma concentration, BID versus QD schedule” value (Cycle 1, Day 8 (FIG. 1))?
The value was “A higher minimal plasma concentration was maintained on the BID schedule”.

What about the “plasma levels / exposure versus dose” value (QD, fasted, Cycle 1, Day 8 (FIG. 1), preliminary PK analysis) of the same compound?
The value was “increased with dose from 300 to 1000 mg QD and plateaued; also recorded: increased with dose up to 1000 mg QD”.

What about the Cmax [1] of the same compound?
The Cmax was 20 ng/mL.

What about the half-life [1] of the same compound?
The half-life was 1.4 h.

What about the Tmax [1] of the same compound?
The Tmax was 2 h.

What about the AUC [2] of the same compound?
Its AUC is 72.7 ng·h/mL.

And the Cmax [2]?
Its Cmax is 20.3 ng/mL.

And the half-life [2]?
Its half-life is 2.52 h.

And the Tmax [2]?
Its Tmax is 2 h.

What about the Cmax [3] of the same compound?
Its Cmax is 11 ng/mL.

And the half-life [3]?
The half-life was 1.2 h.

And the Tmax [3]?
The Tmax was 4 h.

What about the AUC [4] of the same compound?
The AUC was 53 ng·h/mL.

And the Cmax [4]?
The Cmax was 10.8 ng/mL.

What about the half-life [4] of the same compound?
The half-life was 3.55 h.

And the Tmax [4]?
The Tmax was 4 h.

What about the Cmax [5] of the same compound?
Its Cmax is 124 ng/mL.

What about the half-life [5] of the same compound?
Its half-life is 1.9 h.

And the Tmax [5]?
The Tmax was 2.75 h.

And the AUC [6]?
Its AUC is 292 ng·h/mL.

What about the Cmax [6] of the same compound?
Its Cmax is 124 ng/mL.

What about the half-life [6] of the same compound?
The half-life was 2.41 h.

What about the Tmax [6] of the same compound?
The Tmax was 2.12 h.

And the Cmax [7]?
The Cmax was 253 ng/mL.

And the half-life [7]?
The half-life was 1.8 h.

And the Tmax [7]?
Its Tmax is 3.05 h.

What about the AUC [8] of the same compound?
The AUC was 1110 ng·h/mL.

And the Cmax [8]?
Its Cmax is 251 ng/mL.

What about the half-life [8] of the same compound?
Its half-life is 2.96 h.

And the Tmax [8]?
Its Tmax is 4 h.

And the Cmax [9]?
Its Cmax is 255 ng/mL.

And the half-life [9]?
The half-life was 2.1 h.

And the Tmax [9]?
Its Tmax is 4.02 h.

What about the AUC [10] of the same compound?
The AUC was 768 ng·h/mL.

And the Cmax [10]?
The Cmax was 255 ng/mL.

What about the half-life [10] of the same compound?
The half-life was 2.33 h.

And the Tmax [10]?
Its Tmax is 4.02 h.

And the Cmax [11]?
Its Cmax is 262 ng/mL.

What about the half-life [11] of the same compound?
The half-life was 2.3 h.

And the Tmax [11]?
Its Tmax is 4 h.

And the AUC [12]?
The AUC was 814 ng·h/mL.

What about the Cmax [12] of the same compound?
Its Cmax is 211 ng/mL.

What about the half-life [12] of the same compound?
The half-life was 2.99 h.

And the Tmax [12]?
The Tmax was 4 h.

And the Cmax [13]?
The Cmax was 74 ng/mL.

What about the half-life [13] of the same compound?
The half-life was 2.4 h.

What about the Tmax [13] of the same compound?
The Tmax was 1 h.

And the AUC [14]?
Its AUC is 175 ng·h/mL.

What about the Cmax [14] of the same compound?
The Cmax was 74.5 ng/mL.

What about the half-life [14] of the same compound?
Its half-life is 7.19 h.

What about the Tmax [14] of the same compound?
The Tmax was 1 h.

And the Cmax [15]?
The Cmax was 194 ng/mL.

What about the half-life [15] of the same compound?
The half-life was 4.8 h.

What about the Tmax [15] of the same compound?
The Tmax was 0.52 h.

What about the AUC [16] of the same compound?
The AUC was 636 ng·h/mL.

And the Cmax [16]?
Its Cmax is 194 ng/mL.

What about the half-life [16] of the same compound?
Its half-life is 7.32 h.

What about the Tmax [16] of the same compound?
The Tmax was 0.52 h.

And the Cmax [17]?
Its Cmax is 241 ng/mL.

What about the half-life [17] of the same compound?
The half-life was 3.7 h.

What about the Tmax [17] of the same compound?
The Tmax was 4 h.

And the AUC [18]?
The AUC was 1630 ng·h/mL.

And the Cmax [18]?
Its Cmax is 395 ng/mL.

What about the half-life [18] of the same compound?
Its half-life is 3.72 h.

And the Tmax [18]?
Its Tmax is 4 h.

And the Cmax [19]?
Its Cmax is 100 ng/mL.

And the half-life [19]?
Its half-life is 3.2 h.
